Results published in PMC12783763 (Nature Communications, 2025).

Target: NPM1 (nucleophosmin 1) (Homo sapiens, UniProt P06748)
Assay: surface plasmon resonance
Type: binding

Sequence of NPM1 (nucleophosmin 1) (P06748 whole entry): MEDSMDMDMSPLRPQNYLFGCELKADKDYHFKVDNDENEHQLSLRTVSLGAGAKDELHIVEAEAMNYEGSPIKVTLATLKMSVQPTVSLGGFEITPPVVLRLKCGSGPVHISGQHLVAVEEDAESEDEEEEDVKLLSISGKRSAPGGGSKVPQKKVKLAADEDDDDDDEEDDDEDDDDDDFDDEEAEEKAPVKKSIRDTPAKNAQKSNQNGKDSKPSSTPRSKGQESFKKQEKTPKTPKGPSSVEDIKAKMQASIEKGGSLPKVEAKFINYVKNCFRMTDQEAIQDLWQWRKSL

Structure (SMILES): C[C@H](CCC(=O)NCCS(=O)(=O)O)[C@H]1CC[C@H]2[C@@H]3[C@H](O)C[C@@H]4C[C@H](O)CC[C@]4(C)[C@H]3CC[C@]12C [taurochenodeoxycholic acid]
- Kd: 20.9 µM
